Data from patent US20110034526A1, “Benzimidazole Compounds” (Wyeth LLC, priority 2007, published 2011).

What was measured:
human LXRβ = biological target: T1, human LXRβ (Homo sapiens, UniProt P55055); assay: Ligand-binding test procedure for human LXRβ (3H T0901317 tracer, flash plates)
T1 construct: biotin (biotinylated); made in house; host or cells: E. coli (crude extract)
T1 sequence (P55055 1-460): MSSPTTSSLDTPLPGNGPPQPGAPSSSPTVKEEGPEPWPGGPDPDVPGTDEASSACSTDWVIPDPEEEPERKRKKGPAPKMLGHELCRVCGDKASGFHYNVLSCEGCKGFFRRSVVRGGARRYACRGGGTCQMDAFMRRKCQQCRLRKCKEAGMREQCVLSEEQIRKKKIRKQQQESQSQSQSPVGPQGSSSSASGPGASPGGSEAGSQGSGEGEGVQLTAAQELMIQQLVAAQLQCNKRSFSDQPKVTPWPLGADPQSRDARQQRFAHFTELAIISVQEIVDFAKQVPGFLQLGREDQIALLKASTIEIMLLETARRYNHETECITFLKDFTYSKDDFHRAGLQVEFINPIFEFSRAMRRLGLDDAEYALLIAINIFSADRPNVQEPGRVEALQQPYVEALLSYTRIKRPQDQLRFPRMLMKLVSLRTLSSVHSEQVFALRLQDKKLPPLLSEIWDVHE
Protocol: Receptor source: E. coli extracted from cells expressing biotinylated hLXRβ. Extract was made in a similar buffer as above, but with 50 mM TRIS.
Washed streptavidin and coated flash plates with wash buffer. Diluted receptor extract to give Bmax ˜4000 cpm and add to the wells. Wrapped the plates in aluminum foil and stored them at +4° C. overnight.
(§1) Made a dilution series in DMSO of the test ligands. Made a 5 nM solution of the radioactive tracer in buffer. Mixed 250 μl diluted tracer with 5 μl of the test ligand from each concentration of the dilution series. Washed the receptor-coated flash plates. Added 200 μl per well of the ligand/radiolabel mixture to the receptor-coated flash plates. Wrapped the plates in aluminum foil and incubate at +4° C. over night.
Aspirated wells, and washed the flashed plates. Sealed the plate. Measured the remaining radioactivity in the plate.

human LXRα = biological target: T2, human LXRα (Homo sapiens, UniProt Q13133); assay: Ligand-binding test procedure for human LXRα (3H T0901317 tracer, flash plates); conditions: biotinylated hLXRα, tracer 3H T0901317
T2 construct: biotin (biotinylated); made in house; host or cells: E. coli (crude extract)
T2 sequence (Q13133 1-447): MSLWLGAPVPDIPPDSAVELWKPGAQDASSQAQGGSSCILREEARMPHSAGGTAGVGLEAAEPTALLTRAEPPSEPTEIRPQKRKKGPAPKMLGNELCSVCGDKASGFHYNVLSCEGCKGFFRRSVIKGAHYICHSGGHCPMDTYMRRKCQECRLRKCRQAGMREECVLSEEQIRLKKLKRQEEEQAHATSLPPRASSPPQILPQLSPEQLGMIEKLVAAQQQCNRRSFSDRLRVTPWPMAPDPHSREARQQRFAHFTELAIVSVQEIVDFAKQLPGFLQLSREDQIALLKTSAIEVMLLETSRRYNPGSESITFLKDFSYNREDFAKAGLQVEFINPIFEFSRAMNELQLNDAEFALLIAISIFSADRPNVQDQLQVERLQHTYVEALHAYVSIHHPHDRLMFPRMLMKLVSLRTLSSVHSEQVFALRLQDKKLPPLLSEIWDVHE
Protocol: Receptor source: E. coli extract from cells expressing biotinylated hLXRcc. Extract was made in a similar buffer as above, but with 50 mM TRIS.
Washed streptavidin and coated flash plates with wash buffer. Diluted receptor extract to give Bmax ˜4000 cpm and add to the wells. Wrapped the plates in aluminum foil and stored them at +4° C. over night.
as §1
Aspirated wells, and wash the flashed plates. Sealed the plate. Measured the remaining radioactivity in the plate.

Row | IC50 (human LXRβ) | IC50 (human LXRα) | Structure (SMILES)
1 | 512 nM | 4700 nM | CS(=O)(=O)c1cc(F)cc(Oc2ccc(-n3c(C(F)(F)F)nc4c(C(F)(F)F)cccc43)cc2)c1 [Example 72, 1-{4-[3-fluoro-5-(methylsulfonyl)phenoxy]phenyl}-2,4-bis(trifluoromethyl)-1H-benzimidazole]
2 | 1.7 nM | 8.4 nM | Cc1nc2c(C(F)(F)F)cccc2n1-c1ccc(Oc2cccc(S(C)(=O)=O)c2)cc1 [Example 64, 2-methyl-1-{4-[3-(methylsulfonyl)phenoxy]phenyl}-4-(trifluoromethyl)-1H-benzimidazole]
3 | 304 nM | 1960 nM | Cc1nc2c(C(F)(F)F)cccc2n1-c1ccc(Oc2cccc(S(C)(=O)=O)c2)cc1Cl [Example 102, 1-{2-chloro-4-[3-(methylsulfonyl)phenoxy]phenyl}-2-methyl-4-(trifluoromethyl)-1H-benzimidazole]
4 | 435 nM | 2950 nM | Cc1nc2c(C(F)(F)F)cccc2n1-c1cccc(Oc2ccc(S(C)(=O)=O)cc2)c1 [Example 14, 2-methyl-1-{3-[4-(methylsulfonyl)phenoxy]phenyl}-4-(trifluoromethyl)-1H-benzimidazole]
5 | 1230 nM | > 1000 nM | CCc1nc2c(C(F)(F)F)cccc2n1-c1ccc(Oc2cccc(S(=O)(=O)CC)c2)cc1 [Example 68, 2-ethyl-1-{4-[3-(ethylsulfonyl)phenoxy]phenyl}-4-(trifluoromethyl)-1H-benzimidazole]
6 | 301 nM | 3690 nM | CCS(=O)(=O)c1cc(F)cc(Oc2ccc(-n3c(C)nc4c(C(F)(F)F)cccc43)c(C)c2)c1 [Example 99]
7 | 581 nM | 5200 nM | Cc1cc(Oc2ccc(S(C)(=O)=O)cc2)ccc1-n1cnc2c(C(F)(F)F)cccc21 [Example 98, 1-{2-methyl-4-[4-(methylsulfonyl)phenoxy]phenyl}-4-(trifluoromethyl)-1H-benzimidazole]
8 | 198 nM | 2500 nM | CCS(=O)(=O)c1cccc(Oc2cccc(-n3c(C(F)(F)F)nc4c(C(F)(F)F)cccc43)c2)c1 [Example 77, 1-{3-[3-(ethylsulfonyl)phenoxy]phenyl}-2,4-bis(trifluoromethyl)-1H-benzimidazole]
9 | 278 nM | 4500 nM | CS(=O)(=O)c1cccc(Oc2ccc(-n3c(C(F)(F)F)nc4c(C(F)(F)F)cccc43)cc2)c1 [Example 70, 1-{4-[3-(methylsulfonyl)phenoxy]phenyl}-2,4-bis(trifluoromethyl)-1H-benzimidazole]
10 | 122 nM | 2100 nM | CCS(=O)(=O)c1cccc(Oc2ccc(-n3c(C)nc4c(C(F)(F)F)cccc43)c(C)c2)c1 [Example 94]
11 | 6.6 nM | 31 nM | CCS(=O)(=O)c1cc(F)cc(Oc2cccc(-n3c(C)nc4c(Cl)cccc43)c2)c1 [Example 45, 4-chloro-1-{3-[3-(ethylsulfonyl)-5-fluorophenoxy]phenyl}-2-methyl-1H-benzimidazole]
12 | 110 nM | 1500 nM | CS(=O)(=O)c1cccc(COc2ccc(Cl)c(-n3cnc4c(C(F)(F)F)cccc43)c2)c1 [Example 84, 1-(2-chloro-5-{[3-(methylsulfonyl)benzyl]oxy}phenyl)-4-(trifluoromethyl)-1H-benzimidazole]
13 | > 1000 nM | > 1000 nM | CS(=O)(=O)c1cccc(COc2ccc(-n3c(C(F)(F)F)nc4c(C(F)(F)F)cccc43)cc2)c1 [Example 86, 1-(4-{[3-(methylsulfonyl)benzyl]oxy}phenyl)-2,4-bis(trifluoromethyl)-1H-benzimidazole]
14 | 164 nM | 2500 nM | CCCS(=O)(=O)c1cccc(Oc2ccc(Cl)c(-n3c(C)nc4c(Cl)cccc43)c2)c1 [Example 56, 4-chloro-1-{2-chloro-5-[3-(propylsulfonyl)phenoxy]phenyl}-2-methyl-1H-benzimidazole]
15 | 357 nM | 3000 nM | Cc1nc2c(Cl)cccc2n1-c1cccc(Oc2ccc(S(C)(=O)=O)cc2F)c1 [Example 52, 4-chloro-1-{3-[2-fluoro-4-(methylsulfonyl)phenoxy]phenyl}-2-methyl-1H-benzimidazole]
16 | > 1000 nM | > 1000 nM | Cc1nc2c(C(F)(F)F)cccc2n1-c1cccc(Oc2ccccc2S(C)(=O)=O)c1 [Example 12, 2-methyl-1-{3-[2-(methylsulfonyl)phenoxy]phenyl}-4-(trifluoromethyl)-1H-benzimidazole]
17 | 1230 nM | 3990 nM | CS(=O)(=O)c1cc(F)cc(Oc2ccc(-n3cnc4c(C(F)(F)F)cccc43)c(Cl)c2)c1 [Example 106, 1-{2-chloro-4-[3-fluoro-5-(methylsulfonyl)phenoxy]phenyl}-4-(trifluoromethyl)-1H-benzimidazole]
18 | 92 nM | 1370 nM | CC(C)S(=O)(=O)c1cccc(Oc2cccc(-n3c(C(F)(F)F)nc4c(C(F)(F)F)cccc43)c2)c1 [Example 78, 1-{3-[3-(isopropylsulfonyl)phenoxy]phenyl}-2,4-bis(trifluoromethyl)-1H-benzimidazole]
19 | > 1000 nM | > 1000 nM | Cc1nc2c(C(F)(F)F)cccc2n1-c1ccc(OCc2cccc(S(C)(=O)=O)c2)cc1 [Example 87, 2-methyl-1(4-{[3-(methylsulfonyl)benzyl]oxy}phenyl)-4-(trifluoromethyl)-1H-benzimidazole]
20 | 1310 nM | 12000 nM | Cc1cc(Oc2ccc(S(C)(=O)=O)cc2)ccc1-n1c(C)nc2c(C(F)(F)F)cccc21 [Example 100, 2-methyl-1-{2-methyl-4-[4-(methylsulfonyl)phenoxy]phenyl}-4-(trifluoromethyl)-1H-benzimidazole]
21 | 3.7 nM | 14 nM | CCCS(=O)(=O)c1cccc(Oc2cccc(-n3c(C)nc4c(Cl)cccc43)c2)c1 [Example 43, 4-chloro-2-methyl-1-{3-[3-(propylsulfonyl)phenoxy]phenyl}-1H-benzimidazole]
22 | 479 nM | 2580 nM | CS(=O)(=O)c1cccc(Oc2ccc(-n3cnc4c(C(F)(F)F)cccc43)c(Cl)c2)c1 [Example 104, 1-{2-chloro-4-[3-(methylsulfonyl)phenoxy]phenyl}-4-(trifluoromethyl)-1H-benzimidazole]
23 | 100 nM | 646 nM | Cc1nc2c(Cl)cccc2n1-c1cccc(Oc2cc(S(C)(=O)=O)ccc2Br)c1 [Example 51, 1-{3-[2-bromo-5-(methylsulfonyl)phenoxy]phenyl}-4-chloro-2-methyl-1H-benzimidazole]
24 | 3.5 nM | 12 nM | Cc1nc2c(Cl)cccc2n1-c1cccc(Oc2cc(F)cc(S(C)(=O)=O)c2)c1 [Example 44, 4-chloro-1-{3-[3-fluoro-5-(methylsulfonyl)phenoxy]phenyl}-2-methyl-1H-benzimidazole]
25 | 357 nM | 2710 nM | CCS(=O)(=O)c1cccc(Oc2ccc(-n3cnc4c(C(F)(F)F)cccc43)c(Cl)c2)c1 [Example 105, 1-{2-chloro-4-[3-(ethylsulfonyl)phenoxy]phenyl}-4-(trifluoromethyl)-1H-benzimidazole]
26 | 348 nM | 3260 nM | Cc1cc(Oc2cccc(S(=O)(=O)C(C)C)c2)ccc1-n1cnc2c(C(F)(F)F)cccc21 [Example 92, 1-(2-methyl-4-{3-[(1-methylethyl)sulfonyl]phenoxy}phenyl)-4-(trifluoromethyl)-1H-benzimidazole]
27 | 1110 nM | 8000 nM | CCS(=O)(=O)c1cc(F)cc(Oc2ccc(-n3cnc4c(C(F)(F)F)cccc43)c(C)c2)c1 [Example 97, 1-{4-[3-(ethylsulfonyl)-5-fluorophenoxy]-2-methylphenyl}-4-(trifluoromethyl)-1H-benzimidazole]
28 | 191 nM | 2780 nM | Cc1cc(Oc2cccc(S(C)(=O)=O)c2)ccc1-n1c(C)nc2c(C(F)(F)F)cccc21 [Example 93, 2-methyl-1-{2-methyl-4-[3-(methylsulfonyl)phenoxy]phenyl}-4-(trifluoromethyl)-1H-benzimidazole]
